Results from article PMC10937676, “Targeting the NTSR2/TrkB oncogenic pathway in chronic lymphocytic leukemia” (Scientific Reports, 2024).

Columns and labels:
Assay type in all cases: cell-based, human
[1] = test system: SRC; assay: Immunoblot, relative phosphorylation level of SRC in CLL-B cells; settings: CLL-B cells from 10 patients, overnight, 10 µM
Procedure: (§1) Figure 5 The peptide inhibits kinase phosphorylation. CLL-B cells from 10 patients were incubated overnight, with or without 10 µM of TAT-Pep. Whole cell lysates were then prepared, and 10 µg of proteins were immunoblotted to assess the following parameters. (A) Relative phosphorylation level of SRC. (B) Relative phosphorylation level of AKT. (C) Relative phosphorylation level of LYN. (D) Relative phosphorylation level of BTK. (E) Relative phosphorylation level of all tyrosine-phosphorylated proteins.
(§2) Whole cell lysate proteins were extracted using RIPA buffer (Sigma-Aldrich) and sonication (VibraCell™). Plasma membrane proteins were recovered by using the Plasma Membrane Protein Extraction Kit (Abcam) according to the manufacturer’s instructions. A list of the antibodies used for immunoblotting is available in Supplementary Table 2. Bands were quantitatively assessed by densitometry using Fiji software. To evaluate the level of interaction of NTSR2 and TRKB we normalized the density of the TRKB bands by the density of the NTSR2 bands to obtain the relative amount of TRKB co-precipitated through NTSR2.

[2] = test system: BCL-XL; assay: Immunoblot, relative level of anti-apoptotic protein BCL-XL in CLL-B cells; settings: CLL-B cells from 10 patients, overnight, 10 µM
From the text: (§3) Concerning anti-apoptotic protein expression, a decrease in anti-apoptotic proteins BCL-2; BCL-XL and MCL-1 was observed after TAT-Pep treatment of CLL-B cells, possibly as a consequence of the SRC kinase inactivation (Fig. 6A–C). To unveil whether the regulation mechanism behind the observed modifications was transcriptional or post-transcriptional, we evaluated the mRNA levels of all three anti-apoptotic proteins following peptide treatment. […] To further underline that the induction of cell death following TAT-Pep treatment involved apoptosis regulation pathways, we used B cells from six CLL patients and stained them with Annexin V in both TAT-Pep treated and untreated conditions. […]
(§4) Figure 6 The peptide lowers anti-apoptotic proteins levels. […] CLL-B cells from 12 patients were incubated overnight, with or without 10 µM of TAT-Pep, subsequently RNA was extracted from cell lysates and mRNA levels of BCL-2 (D); BCL-XL (E) and MCL-1 (F) were evaluated using RTqPCR; 18S was used as a housekeeping gene. (G) Increased concentrations (0 to 30 µM) of TAT-Pep were incubated with 20,000 CLL-B, and the number of Annexin V-positive cells was measured using the Incucyte live-cell imaging device. Fluorescence was monitored for 48 h. […] The ‘Green Object Count/Phase Object Count’ ratio was determined using the Incucyte analysis software to obtain the percentage of apoptotic cells. […]

[3] = test system: AKT; assay: Immunoblot, relative phosphorylation level of AKT in CLL-B cells; settings: CLL-B cells from 10 patients, overnight, 10 µM
Procedure: as §1, §2

[4] = test system: CLL-B cells; assay: Apoptosis of CLL-B cells, Annexin V staining (Incucyte); settings: 20,000 CLL-B cells, 6 patients, technical triplicates, Annexin V Dye, 48 h, area under the curve
From the text: Concerning anti-apoptotic protein expression, a decrease in anti-apoptotic proteins BCL-2; BCL-XL and MCL-1 was observed after TAT-Pep treatment of CLL-B cells, possibly as a consequence of the SRC kinase inactivation (Fig. 6A–C). To unveil whether the regulation mechanism behind the observed modifications was transcriptional or post-transcriptional, we evaluated the mRNA levels of all three anti-apoptotic proteins following peptide treatment. […] To further underline that the induction of cell death following TAT-Pep treatment involved apoptosis regulation pathways, we used B cells from six CLL patients and stained them with Annexin V in both TAT-Pep treated and untreated conditions. As shown on Fig. 6G, TAT-Pep treatment did induce apoptosis in CLL-B cells. […] However, at 5 µM, there was already a 1.9-fold increase in cell death compared to the control. It progressively rose to a 2.5-fold increase and a 3.6-fold increase for 10 µM and 30 µM, respectively.
Figure 6 The peptide lowers anti-apoptotic proteins levels. CLL-B cells from 10 patients were incubated overnight, with or without 10 µM of TAT-Pep. Whole cell lysates were then prepared, and 10 µg of proteins were immunoblotted to assess the following parameters. (A) Relative level of the anti-apoptotic protein BCL-2 in B-CLL. (B) Relative level of the anti-apoptotic protein BCL-XL and (C) relative level of the anti-apoptotic protein MCL-1. CLL-B samples from ten different patients were utilized for the analysis. CLL-B cells from 12 patients were incubated overnight, with or without 10 µM of TAT-Pep, subsequently RNA was extracted from cell lysates and mRNA levels of BCL-2 (D); BCL-XL (E) and MCL-1 (F) were evaluated using RTqPCR; 18S was used as a housekeeping gene. (G) Increased concentrations (0 to 30 µM) of TAT-Pep were incubated with 20,000 CLL-B, and the number of Annexin V-positive cells was measured using the Incucyte live-cell imaging device. Fluorescence was monitored for 48 h. […] The ‘Green Object Count/Phase Object Count’ ratio was determined using the Incucyte analysis software to obtain the percentage of apoptotic cells. The area under the curve for each condition was then calculated, and they were compared using a t-test.
Cell viability and survival were monitored using the IncucyteS3 system (Sartorius), a live-cell imaging device enabling the tracking of fluorescence over set periods of time[41],[42]. […] In all analyses, the ‘Green Object Count/Phase Object Count’ ratio was determined using the Incucyte analysis software to obtain the percentage of dead cells. The area under the curve for each condition was then calculated, and they were compared using a t-test. To evaluate proliferation, phase confluence was determined and normalized with t = 0 h using the Incucyte analysis software.

[5] = test system: MCL-1 mRNA; assay: RTqPCR, mRNA level of MCL-1 in CLL-B cells; settings: CLL-B cells from 12 patients, overnight, 10 µM, 18S housekeeping gene
From the text: as §3, §4

## GRKKRRQRRRPPQNAVSSSFRKLFLEAVSSLCGEHHPMKRLPPKPQSPTLMDTASGFGDPPETRT [TAT-Pep]
[1]
  amount of phosphorylated SRC (in words): significant decrease
[2]
  level of anti-apoptotic protein BCL-XL (in words): decrease
[3]
  AKT phosphorylation (in words): did not observe any variation
[4]; 2.5 µM
  Annexin V-positive cells compared to the control (in words): no significant cytotoxicity was observed
[4]; 5 µM
  increase in cell death (Annexin V-positive cells) compared to the control: 1.9 fold
[4]; 10 µM
  increase in cell death (Annexin V-positive cells) compared to the control: 2.5 fold
[4]; 30 µM
  increase in cell death (Annexin V-positive cells) compared to the control: 3.6 fold
[5]
  mRNA level of MCL-1 (in words): significantly lowered expression
